From patent US7998965B2, “Glutamate aggrecanase inhibitors” (Wyeth LLC, priority 2005, dated 2011)
Read-outs that look alike come from different tables or passages of the source.

How the values were obtained:
[1] = molecular target: T1, recombinant human MMP-2 (Homo sapiens, UniProt P08253); experiment: In vitro fluorescence assay of MMP-2 activity
T1 sequence (P08253 110-660): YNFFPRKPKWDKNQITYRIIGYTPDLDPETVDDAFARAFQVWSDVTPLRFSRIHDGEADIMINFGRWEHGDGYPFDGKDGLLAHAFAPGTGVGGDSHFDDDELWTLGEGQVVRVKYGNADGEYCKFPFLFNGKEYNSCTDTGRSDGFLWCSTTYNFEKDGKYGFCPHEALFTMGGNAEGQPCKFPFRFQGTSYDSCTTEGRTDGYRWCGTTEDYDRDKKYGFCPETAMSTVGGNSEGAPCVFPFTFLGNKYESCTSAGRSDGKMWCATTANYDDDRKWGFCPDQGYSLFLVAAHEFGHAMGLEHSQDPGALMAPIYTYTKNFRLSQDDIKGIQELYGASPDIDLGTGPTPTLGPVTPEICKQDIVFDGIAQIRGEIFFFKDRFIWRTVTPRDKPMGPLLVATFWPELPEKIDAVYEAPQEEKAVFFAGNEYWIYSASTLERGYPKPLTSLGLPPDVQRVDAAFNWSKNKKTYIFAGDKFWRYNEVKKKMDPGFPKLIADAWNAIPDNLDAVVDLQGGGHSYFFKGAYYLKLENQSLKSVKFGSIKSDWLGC
Description: A continuous assay was used in which the substrate is a synthetic peptide containing a fluorescent group (7-methoxycoumarin; Mca), which is quenched by energy transfer to a 2,4-dinitrophenyl group. […] The source of enzyme in the assay was the recombinant human MMP-2 (66 kDa; Oncogene Research Products (catalog number PF023 from Calbiochem)). The substrate used was the peptide Mca-PQGL-(3-[2,4-dinitrophenyl]-L-2,3-diaminopropionyl)-AR-OH. The assay buffer consisted of 50 mM Hepes (pH 7.4), 100 mM NaCl, 5 mM CaCl2, and 0.005% Brij-35. […] The plates were then incubated at 30° C. for 15 minutes. The enzymatic reactions were initiated by adding the substrate to a final concentration of 20 μM, and mixing 10 times with a pipette. The final DMSO concentration in the assay was 6.0%.
Plots of the inhibitor concentration vs. the percent inhibition were fit to the following equation: y=(a−d)/[^1+(x/c)^b]+d, a general sigmoidal curve with Hill slope, a to d. x is the inhibitor concentration under test. y is the percent inhibition. a is the limiting response as x approaches zero. As x increases without bound, y tends toward its limit d. c is the inflection point (IC50) for the curve. That is, y is halfway between the lower and upper asymptotes when x=c. b is the slope factor or Hill coefficient.

[2] = molecular target: T2, recombinant human catalytic domain of MMP-13 (Homo sapiens, UniProt P45452); experiment: In vitro fluorescence assay of MMP-13 activity; assay type: biochemical; conditions: Table 1; unit inferred
T2 construct: catalytic domain of MMP-13 (165 amino acids, residues 104-268, 19 kDa)

[3] = molecular target: T3, MMP-1 (Homo sapiens, UniProt P03956); experiment: MMP-1 of Table 1; assay type: biochemical; conditions: for MMP-1: unit not given; for IC50: unit inferred
T3 sequence (P03956 100-469): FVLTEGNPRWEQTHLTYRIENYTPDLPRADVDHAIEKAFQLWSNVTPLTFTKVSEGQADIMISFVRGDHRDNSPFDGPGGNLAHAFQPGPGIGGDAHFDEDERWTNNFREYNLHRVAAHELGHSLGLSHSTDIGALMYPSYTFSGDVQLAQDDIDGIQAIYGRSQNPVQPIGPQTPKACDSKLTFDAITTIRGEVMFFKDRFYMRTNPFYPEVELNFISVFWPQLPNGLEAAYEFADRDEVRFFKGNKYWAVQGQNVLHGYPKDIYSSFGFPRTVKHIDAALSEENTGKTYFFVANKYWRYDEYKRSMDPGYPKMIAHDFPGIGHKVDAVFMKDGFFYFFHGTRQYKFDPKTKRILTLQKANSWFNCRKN

[4] = molecular target: T4, purified recombinant human Aggrecanase-1 (rAgg1) (Homo sapiens, UniProt O75173); experiment: In vitro fluorescence screen for Aggrecanase-1 inhibitors; assay type: biochemical; conditions: Table 1; for IC50: read-out: Agg1 IC50
T4 sequence (O75173 213-837): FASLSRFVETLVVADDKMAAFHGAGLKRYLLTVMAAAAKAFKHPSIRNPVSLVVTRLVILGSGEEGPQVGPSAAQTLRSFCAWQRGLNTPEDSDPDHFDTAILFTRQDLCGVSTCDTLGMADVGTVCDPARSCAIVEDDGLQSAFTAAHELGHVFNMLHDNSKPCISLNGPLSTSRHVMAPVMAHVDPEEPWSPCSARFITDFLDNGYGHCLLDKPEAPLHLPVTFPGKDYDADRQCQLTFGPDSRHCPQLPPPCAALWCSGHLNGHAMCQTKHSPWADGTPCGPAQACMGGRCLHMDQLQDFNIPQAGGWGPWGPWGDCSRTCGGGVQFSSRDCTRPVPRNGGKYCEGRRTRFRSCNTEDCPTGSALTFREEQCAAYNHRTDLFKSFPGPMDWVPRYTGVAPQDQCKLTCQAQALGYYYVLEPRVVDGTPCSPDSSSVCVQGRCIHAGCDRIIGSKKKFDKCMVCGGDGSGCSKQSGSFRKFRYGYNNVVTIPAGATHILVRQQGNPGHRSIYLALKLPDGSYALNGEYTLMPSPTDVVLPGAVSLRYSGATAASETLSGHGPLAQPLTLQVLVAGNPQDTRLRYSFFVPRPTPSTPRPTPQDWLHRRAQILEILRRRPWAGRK

[5] = molecular target: T5, recombinant human catalytic domain of MMP-14 (Homo sapiens, UniProt P50281); experiment: In vitro fluorescence assay of MMP-14 activity; assay type: biochemical; conditions: Table 1; unit inferred
T5 construct: 177 amino acids corresponding to Tyr89-Gly265 of mature human enzyme; purchased Chemicon International, Inc. CC1041

[6] = molecular target: T6, purified recombinant human Aggrecanase-2 (Ag2t-Phe628-Strep) (Homo sapiens, UniProt Q9UNA0); experiment: In vitro fluorescence screen for Aggrecanase-2 inhibitors; assay type: biochemical; conditions: Table 1; read-out: Agg 2 IC50
T6 construct: the form used is denoted as Ag2t-Phe628-Strep (MW=41,737)
T6 sequence (Q9UNA0 262-628): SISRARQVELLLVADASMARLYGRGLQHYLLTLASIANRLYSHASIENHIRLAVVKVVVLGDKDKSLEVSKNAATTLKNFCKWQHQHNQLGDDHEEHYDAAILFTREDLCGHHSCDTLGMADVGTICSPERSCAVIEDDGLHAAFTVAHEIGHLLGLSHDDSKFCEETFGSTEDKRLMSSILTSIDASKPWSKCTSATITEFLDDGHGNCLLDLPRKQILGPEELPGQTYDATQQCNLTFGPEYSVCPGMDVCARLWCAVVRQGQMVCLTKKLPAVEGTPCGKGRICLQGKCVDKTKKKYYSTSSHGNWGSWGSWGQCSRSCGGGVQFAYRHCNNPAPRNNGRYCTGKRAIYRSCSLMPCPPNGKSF

Compound	IC50 [1]	IC50 [2]	MMP-1 [3]	IC50 [4]	IC50 [5]	IC50 [6]	Ki ([4]; enzyme not given, column follows Agg1 IC50, read-out: Ki)	IC50 ([1]; read-out: MMP-2, Table 1, unit inferred)	IC50 [3]
O=C(O)CC[C@H](NC(=O)c1ccc(-c2ccccc2)cc1)C(=O)NCCc1ccccc1Cl [Example 8VV, N^2-(biphenyl-4-ylcarbonyl)-N^1-[2-(2-chlorophenyl)ethyl]-L-α-glutamine]	9100 nM	~50000 nM	no inh	100 nM	> 66600 nM	1900 nM	–	–	–
CCCCCCNC(=O)[C@H](CCC(=O)O)NC(=O)c1ccc(-c2ccccc2)cc1 [Example 8VVV, N^2-(biphenyl-4-ylcarbonyl)-N^1-hexyl-L-α-glutamine]	5600 nM	~50000 nM	no inh	30 nM	> 66600 nM	420 nM	38 nM	–	–
O=C(O)CC[C@H](NC(=O)c1ccc(-c2ccccc2)cc1)C(=O)NCc1ccc(Oc2ccccc2)cc1 [Example 8W, N^2-(1,1′-biphenyl-4-ylcarbonyl)-N^1-(4-phenoxybenzyl)-L-α-glutamine]	~2500 nM	~22000 nM	no inh	75 nM	~25000 nM	971 nM	–	–	–
O=C(O)CC[C@H](NC(=O)c1ccc(-c2ccccc2)cc1)C(=O)NCCc1cccs1 [Example 8WW, N^2-(biphenyl-4-ylcarbonyl)-N^1-[2-(2-thienyl)ethyl]-L-α-glutamine]	13300 nM	~50000 nM	no inh	70 nM	> 66600 nM	350 nM	–	–	–
O=C(O)CC[C@H](NC(=O)c1ccc(-c2ccccc2)cc1)C(=O)NCCCCCO [Example 8WWW, N^2-(biphenyl-4-ylcarbonyl)-N^1-(5-hydroxypentyl)-L-α-glutamine]	7400 nM	~200000 nM	no inh	36 nM	> 200000 nM	840 nM	–	–	–
COc1cccc(CCNC(=O)[C@H](CCC(=O)O)NC(=O)c2ccc(-c3ccccc3)cc2)c1 [Example 8X, N^2-(1,1′-biphenyl-4-ylcarbonyl)-N^1-[2-(3-methoxyphenyl)ethyl]-L-α-glutamine]	7000 nM	~67000 nM	no inh	100 nM	~25000 nM	1100 nM	–	–	–
O=C(O)CC[C@H](NC(=O)c1ccc(-c2ccccc2)cc1)C(=O)NCCCCCCO [Example 8XXX, N^2-(biphenyl-4-ylcarbonyl)-N^1-(6-hydroxyhexyl)-L-α-glutamine]	7900 nM	~50000 nM	no inh	30 nM	> 200000 nM	930 nM	–	–	–
COc1ccc(CNC(=O)[C@H](CCC(=O)O)NC(=O)c2ccc(-c3ccccc3)cc2)c(OC)c1 [Example 8Y, N^2-(1,1′-biphenyl-4-ylcarbonyl)-N^1-(2,4-dimethoxybenzyl)-L-α-glutamine]	5530 nM	~67000 nM	no inh	50 nM	~25000 nM	520 nM	–	–	–
CCCNC(=O)[C@H](CCC(=O)O)NC(=O)c1ccc(-c2ccccc2)cc1 [Example 8YYY, N^2-(biphenyl-4-ylcarbonyl)-N^1-propyl-L-α-glutamine]	9400 nM	> 50000 nM	no inh	100 nM	> 200000 nM	1600 nM	–	–	–
COc1ccccc1CNC(=O)[C@H](CCC(=O)O)NC(=O)c1ccc(-c2ccccc2)cc1 [Example 8Z, N^2-(1,1′-biphenyl-4-ylcarbonyl)-N^1-(2-methoxybenzyl)-L-α-glutamine]	3820 nM	~67000 nM	no inh	80 nM	~25000 nM	680 nM	–	–	–
COc1cc(CNC(=O)[C@H](CCC(=O)NO)NC(=O)c2ccc(-c3ccccc3)cc2)cc(OC)c1OC [Example 33A, N^2-(1,1′-biphenyl-4-ylcarbonyl)-N^5-hydroxy-N^1-(3,4,5-trimethoxybenzyl)-L-α-glutamamide]	–	32 nM	–	< 10 nM	112 nM	2.6 nM	–	4.7 nM	1750 nM
O=C(CC[C@H](NC(=O)c1ccc(-c2ccccc2)cc1)C(=O)NCc1cccc(OC(F)(F)F)c1)NO [Example 33D, N^2-(1,1′-biphenyl-4-ylcarbonyl)-N^5-hydroxy-N^1-[3-(trifluoromethoxy)benzyl]-L-α-glutamamide]	3.3 nM	52 nM	–	< 10 nM	73.6 nM	13.4 nM	–	–	~1560 nM
